The results in this text go back to patent US20210198204A1, “PRODRUGS OF KALLIKREIN INHIBITORS” (BioCryst Pharmaceuticals, Inc., priority 2016, published 2021).

This series can be described thus: Plasma pharmacokinetics of the parent compound after a single oral dose of prodrug. The note with it: single oral dose 10 mg/kg, fasted male Sprague Dawley rats; plasma analyzed for the parent compound; study duration 8 h. It is filed as in vivo. The protocol: Plasma pharmacokinetics of compounds was determined using three male Sprague Dawley rats following a single oral dose administration. All animals were placed in a rat metabolic cage, isolated, and fasted approximately 15 hours prior to dosing. Identifying markers were placed on each animal. Each animal was weighed prior to dose administration. Animals were administered orally with a solution formulation of test compound either in water or a combination of water/propylene glycol, at a dose of 10 mg/kg. Gavage needles were attached to syringes and filled with appropriate amount of test article to be dosed. Blood samples (approximately 500 μL) were collected from three rats at pre-dose (time 0), 0.5, 1, 2, 4, 8, 12 and 24 hr, respectively, depending on study duration. Samples were collected into labeled micro centrifuge tubes containing (heparin solution) as an anticoagulant. Plasma was immediately harvested from the blood by centrifugation at 14,000 rpm for 3 min at 4° C., and stored below −70° C. until bioanalysis. Individual plasma samples were analyzed for the parent compound, 3-[2-(4-carbamimidoyl-phenylcarbamoyl)-5-methoxy-4-vinyl-phenyl]-6-(cyclopropylmethyl-carbamoyl)-pyridine-2-carboxylic acid. As shown in Table-1, the test compounds yielded varying degrees of exposure to the parent compound. The test compounds generally provided for improved bioavailability of the parent compound as compared to dosing of the parent compound in aqueous solutions.
Consider `C=Cc1cc(C(=O)Nc2ccc(C(=N)NC(=O)OC(C)OC(=O)[C@@H](N)C(C)C)cc2)c(-c2ccc(C(=O)NCC3CC3)nc2C(=O)OC(C)OC(=O)OC(C)C)cc1OC` (stereo partly drawn) [Compound 54c, 1-((isopropoxycarbonyl)oxy)ethyl 3-(2-((4-(N-((1-(((S)-2-amino-3-methylbutanoyl)oxy)ethoxy)carbonyl)carbamimidoyl)phenyl)carbamoyl)-5-methoxy-4-vinylphenyl)-6-((cyclopropylmethyl)carbamoyl)picolinate], for which the “AUC0-last hour (area under the curve)” value is recorded as “B (B = 1,001-10,000 ng/mL)”.

Turning to `C=Cc1cc(C(=O)Nc2ccc(C(=N)NC(=O)OC(C)OC(=O)[C@@H](N)C(C)C)cc2)c(-c2ccc(C(=O)NCC3CC3)nc2C(=O)OC(C)OC(=O)C(C)C)cc1OC` (stereo partly drawn) [Compound 55b, 1-(isobutyryloxy)ethyl 3-(2-((4-(N-((1-(((S)-2-amino-3-methylbutanoyl)oxy)ethoxy)carbonyl)carbamimidoyl)phenyl)carbamoyl)-5-methoxy-4-vinylphenyl)-6-((cyclopropylmethyl)carbamoyl)picolinate], the “AUC0-last hour (area under the curve)” value is “B (B = 1,001-10,000 ng/mL)”.

As to `C=Cc1cc(C=O)c(-c2ccc(C(=O)NCC3CC3)nc2C(=O)OC(OC(=O)C(C)(C)C)C(C)C)cc1OC` (stereo not drawn) [Compound 56b, 2-methyl-1-(pivaloyloxy)propyl 6-((cyclopropylmethyl)carbamoyl)-3-(2-formyl-5-methoxy-4-vinylphenyl)picolinate], the “AUC0-last hour (area under the curve)” value was “C (C >10,000 ng/mL)”.

`C=Cc1cc(C(=O)Nc2ccc(C(=N)NC(=O)OCCCCCC)cc2)c(-c2ccc(C(=O)NCC3CC3)nc2C(=O)OC(OC(=O)C(C)(C)C)C(C)C)cc1OC` (stereo not drawn) [Compound 57a, 2-methyl-1-(pivaloyloxy)propyl 6-((cyclopropylmethyl)carbamoyl)-3-(2-((4-(N-((hexyloxy)carbonyl)carbamimidoyl)phenyl)carbamoyl)-5-methoxy-4-vinylphenyl)picolinate]: the “AUC0-last hour (area under the curve)” value was “B (B = 1,001-10,000 ng/mL)”.

Regarding `C=Cc1cc(C(=O)Nc2ccc(C(=N)N)cc2)c(-c2ccc(C(=O)NCC3CC3)nc2C(=O)OC(C)OC(=O)[C@@H](N)C(C)C)cc1OC.Cl` (stereo partly drawn) [Compound 58f, 1-(((S)-2-amino-3-methylbutanoyl)oxy)ethyl 3-(2-((4-carbamimidoylphenyl)carbamoyl)-5-methoxy-4-vinylphenyl)-6-((cyclopropylmethyl)carbamoyl)picolinate Hydrochloride], the “AUC0-last hour (area under the curve)” value is on record as “B (B = 1,001-10,000 ng/mL)”.

For `C=Cc1cc(C(=O)Nc2ccc(C(=N)NC(=O)OCCCCCC)cc2)c(-c2ccc(C(=O)NCC3CC3)nc2C(=O)OC(C)OC(=O)[C@@H](N)C(C)C)cc1OC.Cl` (stereo partly drawn) [Compound 59b, 1-(((S)-2-amino-3-methylbutanoyl)oxy)ethyl 6-((cyclopropylmethyl)carbamoyl)-3-(2-((4-(N-((hexyloxy)carbonyl)carbamimidoyl)phenyl)carbamoyl)-5-methoxy-4-vinylphenyl)picolinate Hydrochloride], the “AUC0-last hour (area under the curve)” value is “B (B = 1,001-10,000 ng/mL)”.

Consider `C=Cc1cc(C(=O)Nc2ccc(C(=N)NC(=O)OCCC(=O)OC(C)(C)C)cc2)c(-c2ccc(C(=O)NCC3CC3)nc2C(=O)OC(C)OC(=O)OC(C)C)cc1OC` (stereo not drawn) [Compound 60c, 1-((isopropoxycarbonyl)oxy)ethyl 3-(2-((4-(N-((3-(tert-butoxy)-3-oxopropoxy)carbonyl)carbamimidoyl)phenyl)carbamoyl)-5-methoxy-4-vinylphenyl)-6-((cyclopropylmethyl)carbamoyl)picolinate], for which the “AUC0-last hour (area under the curve)” value is “B (B = 1,001-10,000 ng/mL)”.

For `C=Cc1cc(C(=O)Nc2ccc(C(=N)NC(=O)OCCCCCC)cc2)c(-c2ccc(C(=O)NCC3CC3)nc2C(=O)OCOC(=O)[C@@H](N)CCC(=O)O)cc1OC` [Compound 61d, (S)-4-amino-5-(((6-((cyclopropylmethyl)carbamoyl)-3-(2-((4-(N-((hexyloxy)carbonyl)carbamimidoyl)phenyl)carbamoyl)-5-methoxy-4-vinylphenyl)picolinoyl)oxy)methoxy)-5-oxopentanoic acid], the “AUC0-last hour (area under the curve)” value is reported as “A (A = 0-1,000 ng/mL)”.

For `C=Cc1cc(C(=O)Nc2ccc(C(=N)NC(=O)OCCCCCC)cc2)c(-c2ccc(C(=O)NCC3CC3)nc2C(=O)OCOC(=O)[C@@H](N)[C@@H](C)CC)cc1OC` [Compound 62d, (((2S,3S)-2-amino-3-methylpentanoyl)oxy)methyl 6-((cyclopropylmethyl)carbamoyl)-3-(2-((4-(N-((hexyloxy)carbonyl)carbamimidoyl)phenyl)carbamoyl)-5-methoxy-4-vinylphenyl)picolinate], the “AUC0-last hour (area under the curve)” value is reported as “B (B = 1,001-10,000 ng/mL)”.

With `C=Cc1cc(C(=O)Nc2ccc(C(=N)NC(=O)OC(C)C)cc2)c(-c2ccc(C(=O)NCC3CC3)nc2C(=O)OC(C)OC(=O)OC(C)C)cc1OC` (stereo not drawn) [Compound 63c, 1-((isopropoxycarbonyl)oxy)ethyl 6-((cyclopropylmethyl)carbamoyl)-3-(2-((4-(N-(isopropoxycarbonyl)carbamimidoyl)phenyl)carbamoyl)-5-methoxy-4-vinylphenyl)picolinate], the “AUC0-last hour (area under the curve)” value was “C (C >10,000 ng/mL)”.

For the compound `C=Cc1cc(C(=O)Nc2ccc(C(=N)NC(=O)OC(C)OC(=O)C(C)C)cc2)c(-c2ccc(C(=O)NCC3CC3)nc2C(=O)OCOC(=O)[C@@H](N)C(C)C)cc1OC` (stereo partly drawn) [Compound 64b, (((S)-2-amino-3-methylbutanoyl)oxy)methyl 6-((cyclopropylmethyl)carbamoyl)-3-(2-((4-(N-((1-(isobutyryloxy)ethoxy)carbonyl)carbamimidoyl)phenyl)carbamoyl)-5-methoxy-4-vinylphenyl)picolinate], the “AUC0-last hour (area under the curve)” value was “B (B = 1,001-10,000 ng/mL)”.

For the compound `C=Cc1cc(C(=O)Nc2ccc(C(=N)NC(=O)OC3COCOC3)cc2)c(-c2ccc(C(=O)NCC3CC3)nc2C(=O)OC(C)OC(=O)C(C)C)cc1OC` (stereo not drawn) [Compound 65c, 1-(isobutyryloxy)ethyl 3-(2-((4-(N-(((1,3-dioxan-5-yl)oxy)carbonyl)carbamimidoyl)phenyl)carbamoyl)-5-methoxy-4-vinylphenyl)-6-((cyclopropylmethyl)carbamoyl)picolinate], the “AUC0-last hour (area under the curve)” value was “B (B = 1,001-10,000 ng/mL)”.

With `C=Cc1cc(C(=O)Nc2ccc(C(=N)NC(=O)OC(COC)COC)cc2)c(-c2ccc(C(=O)NCC3CC3)nc2C(=O)OC(C)OC(=O)C(C)C)cc1OC` (stereo not drawn) [Compound 66c, 1-(isobutyryloxy)ethyl 6-((cyclopropylmethyl)carbamoyl)-3-(2-((4-(N-(((1,3-dimethoxypropan-2-yl)oxy)carbonyl)carbamimidoyl)phenyl)carbamoyl)-5-methoxy-4-vinylphenyl)picolinate], the “AUC0-last hour (area under the curve)” value was “B (B = 1,001-10,000 ng/mL)”.

For `C=Cc1cc(C(=O)Nc2ccc(C(=N)NC(=O)OC3COCOC3)cc2)c(-c2ccc(C(=O)NCC3CC3)nc2C(=O)OC(C)OC(=O)OC(C)C)cc1OC` (stereo not drawn) [Compound 68a, 1-((isopropoxycarbonyl)oxy)ethyl 3-(2-((4-(N-(((1,3-dioxan-5-yl)oxy)carbonyl)carbamimidoyl)phenyl)carbamoyl)-5-methoxy-4-vinylphenyl)-6-((cyclopropylmethyl)carbamoyl)picolinate], the “AUC0-last hour (area under the curve)” value is on record as “B (B = 1,001-10,000 ng/mL)”.

As for `C=Cc1cc(C(=O)Nc2ccc(C(=N)NC(=O)OCCCCCC)cc2)c(-c2ccc(C(=O)NCC3CC3)nc2C(=O)OCOC(=O)[C@@H](N)Cc2ccccc2)cc1OC` [Compound 69d, (S)-((2-amino-3-phenylpropanoyl)oxy)methyl 6-((cyclopropylmethyl)carbamoyl)-3-(2-((4-(N-((hexyloxy)carbonyl)carbamimidoyl)phenyl)carbamoyl)-5-methoxy-4-vinylphenyl)picolinate], the “AUC0-last hour (area under the curve)” value is listed as “A (A = 0-1,000 ng/mL)”.

As to `C=Cc1cc(C(=O)Nc2ccc(C(=N)NC(=O)OCCCCCC)cc2)c(-c2ccc(C(=O)NCC3CC3)nc2C(=O)OC(C)OC(=O)OC2CCCCC2)cc1OC` (stereo not drawn) [Compound 70d, 1-(((cyclohexyloxy)carbonyl)oxy)ethyl 6-((cyclopropylmethyl)carbamoyl)-3-(2-((4-(N-((hexyloxy)carbonyl)carbamimidoyl)phenyl)carbamoyl)-5-methoxy-4-vinylphenyl)picolinate], the “AUC0-last hour (area under the curve)” value was “B (B = 1,001-10,000 ng/mL)”.

For the compound `C=Cc1cc(C(=O)Nc2ccc(C(=N)NC(=O)OCCC(=O)O)cc2)c(-c2ccc(C(=O)NCC3CC3)nc2C(=O)OC(C)OC(=O)OC(C)C)cc1OC` (stereo not drawn) [Compound 71a, 3-((((4-(2-(6-((cyclopropylmethyl)carbamoyl)-2-((1-((isopropoxycarbonyl)oxy)ethoxy)carbonyl)pyridin-3-yl)-4-methoxy-5-vinylbenzamido)phenyl)(imino)methyl)carbamoyl)oxy)propanoic acid], the “AUC0-last hour (area under the curve)” value is given as “A (A = 0-1,000 ng/mL)”.

As for `C=Cc1cc(C(=O)Nc2ccc(C(=N)NC(=O)OCCCCCC)cc2)c(-c2ccc(C(=O)NCC3CC3)nc2C(=O)OCOC(=O)OC(C)C)cc1OC` [Compound 72a, ((isopropoxycarbonyl)oxy)methyl 6-((cyclopropylmethyl)carbamoyl)-3-(2-((4-(N-((hexyloxy)carbonyl)carbamimidoyl)phenyl)carbamoyl)-5-methoxy-4-vinylphenyl)picolinate], the “AUC0-last hour (area under the curve)” value is given as “B (B = 1,001-10,000 ng/mL)”.
